Results published in patent US20220348572A1, “BRIDGED HETEROCYCLYL-SUBSTITUTED PYRIMIDINE COMPOUND, PREPARATION METHOD THEREFOR, AND PHARMACEUTICAL USE THEREOF” (The National Institutes of Pharmaceutical R&D Co., Ltd., priority 2019, published 2022).

Biological target: T1, JAK1 kinase (Homo sapiens, UniProt P23458)
T1 construct: purchased Invitrogen PV4744
Assay: In vitro inhibitory activity on JAK1 kinase (ADP-Glo Kinase Assay)
Format: biochemical
Conditions: JAK1 kinase 4 nM, 1 mM ATP
Procedure: Test Example 1: Determination of In Vitro Inhibitory Activity of the Compounds of the Present Invention on JAK1 Kinase Experimental materials: JAK1 kinase (Invitrogen, PV4744), ATP (Promega, V915B), ADP-Glo Kinase Assay (Promega, V9101), IRS1 (Signalchem, 140-58-1000). Sample preparation: The compounds of the present invention and the control product were dissolved in DMSO solvent respectively to formulate into 10 mM initial liquid. The maximum concentration of the compound was 10 μM, 3-fold dilution, 10 concentration gradients, and duplicate wells for each concentration gradient. Experimental processs: 0.1 μL of the compound to be tested was transferred into a 384 reaction plate (PE, 6007290) via Echo and centrifuged at 1000 rpm/min for 1 min. 5 μL JAK1 kinase (final concentration of 4 nM) was transferred into the 384 reaction plate, which was then centrifuged at 1000 rpm/min for 1 min, and incubated at 25° C. for 15 min. 5 μL substrate mixture (1 mM ATP, IRS1 0.05 mg/ml, kinase buffer solution) was transferred into the 384 reaction plate, which was then centrifuged at 1000 rpm/min for 1 min, and incubated at 25° C. for 60 min. 10 μL ADP-Glo was transferred into the 384 reaction plate, which was then centrifuged at 1000 rpm/min for 1 min, and incubated at 25° C. for 40 min. 20 μL test solution was transferred into the 384 reaction plate, which was then centrifuged at 1000 rpm/min for 1 min and incubated at 25° C. for 40 min. RLU (Relative luminescence unit) signal was read by using an Envision multifunctional plate reader. The signal intensity was used to characterize the degree of the kinase activity. […] IC50 value of 0-100 nM is shown as A, IC50 value of 100-300 nM is shown as B, IC50 value of 300-1000 nM is shown as C, and IC50 value which is greater than 1000 nM is shown as D. NT means not tested.

T1 sequence (P23458 866-1154 limits assumed): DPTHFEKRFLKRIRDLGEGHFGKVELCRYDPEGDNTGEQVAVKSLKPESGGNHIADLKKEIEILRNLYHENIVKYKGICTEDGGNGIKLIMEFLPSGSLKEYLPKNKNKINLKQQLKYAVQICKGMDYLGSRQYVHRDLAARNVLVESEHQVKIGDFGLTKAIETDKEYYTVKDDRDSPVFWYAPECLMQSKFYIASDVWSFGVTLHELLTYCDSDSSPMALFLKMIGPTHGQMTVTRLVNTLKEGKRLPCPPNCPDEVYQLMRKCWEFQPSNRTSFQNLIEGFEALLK

SMILES	IC50 [nM]
Cc1cnc(Nc2cnn(CC(C)(C)O)c2)nc1C1=CC2CCC(C1)N2C(=O)NCC(F)(F)F (stereo not shown) [Compound 29, 3-(2-((1-(2-hydroxy-2-methylpropyl)-1H-pyrazol-4-yl)amino)-5-methylpyrimidin-4-yl)-N-(2,2,2-trifluoroethyl)-8-azabicyclo[3.2.1]oct-2-ene-8-carboxamide]	< 100
Cn1cc(Nc2nccc(C3=CC4CCC(C3)N4C(=O)C3CCC3C#N)n2)cn1 (stereo not shown) [Compound 77, 2-(3-(2-((1-methyl-1H-pyrazol-4-yl)amino)pyrimidin-4-yl)-8-azabicyclo[3.2.1]oct-2-ene-8-formyl)cyclobutane-1-carbonitrile]	< 100
Cn1cc(Nc2nccc(C3=CC4CCC(C3)N4C(=O)NC3CC3(F)F)n2)cn1 (stereo not shown) [Compound 14, N-(2,2-difluorocyclopropyl)-3-(2-((1-methyl-1H-pyrazol-4-yl)amino)pyrimidin-4-yl)-8-azabicyclo[3.2.1]oct-2-ene-8-carboxamide]	100 to 300
Cc1cnc(Nc2cnn(C)c2Cl)nc1C1=CC2CCC(C1)N2C(=O)NCC(F)(F)F (stereo not shown) [Compound 32, 3-(2-((5-chloro-1-methyl-1H-pyrazol-4-yl)amino)-5-methylpyrimidin-4-yl)-N-(2,2,2-trifluoroethyl)-8-azabicyclo[3.2.1]oct-2-ene-8-carboxamide]	100 to 300
CC(C#N)C(=O)N1C2C=C(c3ccnc(Nc4cnn(C)c4)n3)CC1CC2 (stereo not shown) [Compound 62, 2-methyl-3-(3-(2-((1-methyl-1H-pyrazol-4-yl)amino)pyrimidin-4-yl)-8-azabicyclo[3.2.1]oct-2-en-8-yl)-3-oxopropionitrile]	100 to 300
Cc1cnc(Nc2cnn(CC(C)(C)O)c2)nc1C1=C[C@@H]2CC[C@H](C1)N2C(=O)NCC(F)(F)F (single isomer, unassigned) [Compound 29-a]	< 100
Cn1cc(Nc2nccc(C3=CC4CCC(C3)N4C(=O)C34CC(F)(C3)C4)n2)cn1 (stereo not shown) [Compound 74, (3-fluorobicyclo[1.1.1]pentan-1-yl)(3-(2-((1-methyl-1H-pyrazol-4-yl)amino)pyrimidin-4-yl)-8-azabicyclo[3.2.1]oct-2-en-8-yl)methanone]	> 1000
Cn1cc(Nc2ncc(S(C)(=O)=O)c(C3=CC4CCC(C3)N4C(=O)NCC(F)(F)F)n2)cn1 (stereo not shown) [Compound 34, 3-(2-((1-methyl-1H-pyrazol-4-yl)amino)-5-(methylsulfonyl)pyrimidin-4-yl)-N-(2,2,2-trifluoroethyl)-8-azabicyclo[3.2.1]oct-2-ene-8-carboxamide]	> 1000
Cn1cc(Nc2nccc(C3=CC4CCC(C3)N4C(=O)CC(F)F)n2)cn1 (stereo not shown) [Compound 66, 3,3-difluoro-1-(3-(2-((1-methyl-1H-pyrazol-4-yl)amino)pyrimidin-4-yl)-8-azabicyclo[3.2.1]oct-2-en-8-yl)-1-acetone]	100 to 300
Cc1cnc(Nc2cn(C)nc2C)nc1C1=C[C@H]2CC[C@@H](C1)N2C(=O)NCC(F)(F)F [Compound 26-b, (1R,5S)-3-(2-((1,3-dimethyl-1H-pyrazol-4-yl)amino)-5-methylpyrimidin-4-yl)-N-(2,2,2-trifluoroethyl)-8-azabicyclo[3.2.1]oct-2-ene-8-carboxamide]	< 100
C[C@H](NC(=O)N1C2C=C(c3ccnc(Nc4cnn(C)c4)n3)CC1CC2)C(F)(F)F (stereo partly drawn) [Compound 55, 3-(2-((1-Methyl-1H-pyrazol-4-yl)amino)pyrimidin-4-yl)-N-((S)-1,1,1-trifluoropropane-2-yl)-8-azabicyclo[3.2.1]oct-2-ene-8-carboxamide]	< 100
Cn1cc(Nc2nccc(C3=CC4CCC(C3)N4S(=O)(=O)CCC(F)(F)F)n2)cn1 (stereo not shown) [Compound 6, N-(1-methyl-1H-pyrazol-4-yl)-4-(8-((3,3,3-trifluoropropyl)sulfonyl)-8-azabicyclo[3.2.1]oct-2-en-3-yl)pyrimidin-2-amine]	> 1000
Cn1cc(Nc2ncc(Cl)c(C3=C[C@H]4CC[C@@H](C3)N4C(=O)[C@@H]3CC3(F)F)n2)cn1 [Compound 23-b, ((1R,5S)-3-(5-chloro-2-((1-methyl-1H-pyrazol-4-yl)amino)pyrimidin-4-yl)-8-azabicyclo[3.2.1]oct-2-en-8-yl)((S)-2,2-difluorocyclopropyl)methanone]	< 100
Cc1cnc(Nc2cnn(C3COC3)c2)nc1C1=CC2CCC(C1)N2C(=O)NCC(F)(F)F (stereo not shown) [Compound 30, 3-(5-Methyl-2-((1-(oxetan-3-yl)-1H-pyrazol-4-yl)amino)pyrimidin-4-yl)-N-(2,2,2-trifluoroethyl)-8-azabicyclo[3.2.1]oct-2-ene-8-carboxamide]	< 100
Cn1cc(Nc2nccc(C3=CC4CCC(C3)N4C(=O)C(F)(F)C3CC3)n2)cn1 (stereo not shown) [Compound 75, 2-cyclopropyl-2,2-difluoro-1-(3-(2-((1-methyl-1H-pyrazol-4-yl)amino)pyrimidin-4-yl)-8-azabicyclo[3.2.1]oct-2-en-8-yl)ethan-1-one]	100 to 300
Cn1cc(Nc2nccc(C3=CC4CCC(C3)N4C(=O)CC#N)n2)cn1 (stereo not shown) [Compound 61, 3-(3-(2-((1-methyl-1H-pyrazol-4-yl)amino)pyrimidin-4-yl)-8-azabicyclo[3.2.1]oct-2-en-8-yl)-3-oxopropionitrile]	100 to 300
Cn1cc(Nc2nccc(C3=CC4CCC(C3)N4C(=O)C3CC3(C)C)n2)cn1 (stereo not shown) [Compound 60, (2,2-Dimethylcyclopropyl)(3-(2-((1-methyl-1H-pyrazol-4-yl)amino)pyrimidin-4-yl)-8-azabicyclo[3.2.1]oct-2-en-8-yl)methanone]	> 1000
Cn1cc(Nc2nccc(C3=CC4CCC(C3)N4C(=O)C3CCOCC3)n2)cn1 (stereo not shown) [Compound 78]	> 1000
Cn1cc(Nc2nccc(C3=CC4CCC(C3)N4C(=O)C(=O)NCC#N)n2)cn1 (stereo not shown) [Compound 83, N-(cyanomethyl)-2-(3-(2-((1-methyl-1H-pyrazol-4-yl)amino)pyrimidin-4-yl)-8-azabicyclo[3.2.1]oct-2-en-8-yl)-2-oxoacetamide]	> 1000
Cn1cc(Nc2nccc(C3=CC4CCC(C3)N4C(=O)N3CCC(C(F)(F)F)C3)n2)cn1 (stereo not shown) [Compound 9, (3-(2-((1-methyl-1H-pyrazol-4-yl)amino)pyrimidin-4-yl)-8-azabicyclo[3.2.1]oct-2-en-8-yl)(3-(trifluoromethyl)pyrrolidin-1-yl)methanone]	> 1000
Cn1cc(Nc2nccc(C3=CC4CCC(C3)N4C(=O)C3CCC(F)(F)C3)n2)cn1 (stereo not shown) [Compound 70, (3,3-difluorocyclopentyl)(3-(2-((1-methyl-1H-pyrazol-4-yl)amino)pyrimidin-4-yl)-8-azabicyclo[3.2.1]oct-2-en-8-yl)methanone]	< 100
Cn1cc(Nc2nccc(C3=CC4CCC(C3)N4C(=O)N3CC[C@@H](C#N)C3)n2)cn1 (stereo partly drawn) [Compound 7, (R)-1-(3-(2-((1-methyl-1H-pyrazol-4-yl)amino)pyrimidin-4-yl)-8-azabicyclo[3.2.1]oct-2-ene-8-carbonyl)pyrrolidine-3-nitrile]	> 1000
O=C(NCC(F)(F)F)N1C2C=C(c3ccnc(Nc4cnn(CCO)c4)n3)CC1CC2 (stereo not shown) [Compound 42, 3-(2-((1-(2-hydroxyethyl)-1H-pyrazol-4-yl)amino)pyrimidin-4-yl)-N-(2,2,2-trifluoroethyl)-8-azabicyclo[3.2.1]oct-2-ene-8-carboxamide]	< 100
Cn1cc(Nc2nccc(C3=CC4CCC(C3)N4C(=O)NCCC(F)(F)F)n2)cn1 (stereo not shown) [Compound 57, 3-(2-((1-methyl-1H-pyrazol-4-yl)amino)pyrimidin-4-yl)-N-(3,3,3-trifluoropropyl)-8-azabicyclo[3.2.1]oct-2-ene-8-carboxamide]	300 to 1000
C#CCC(=O)N1C2C=C(c3ccnc(Nc4cnn(C)c4)n3)CC1CC2 (stereo not shown) [Compound 53, 1-(3-(2-((1-methyl-1H-pyrazol-4-yl)amino)pyrimidin-4-yl)-8-azabicyclo[3.2.1]oct-2-en-8-yl)but-3-yn-1-one]	> 1000
Cn1cc(Nc2ncc(C#N)c(C3=CC4CCC(C3)N4C(=O)NCC(F)(F)F)n2)cn1 (stereo not shown) [Compound 35, 3-(5-cyano-2-((1-methyl-1H-pyrazol-4-yl)amino)pyrimidin-4-yl)-N-(2,2,2-trifluoroethyl)-8-azabicyclo[3.2.1]oct-2-ene-8-carboxamide]	100 to 300
Cn1cc(Nc2nccc(C3=CC4CCC(C3)N4S(=O)(=O)NCC#N)n2)cn1 (stereo not shown) [Compound 4, N-(cyanomethyl)-3-(2-((1-methyl-1H-pyrazol-4-yl)amino)pyrimidin-4-yl)-8-azabicyclo[3.2.1]oct-2-ene-8-sulfonamide]	> 1000
Cn1cc(Nc2nccc(C3=CC4CCC(C3)N4C(=O)CC(F)(F)F)n2)cn1 (stereo not shown) [Compound 65, 3,3,3-trifluoro-1-(3-(2-((1-methyl-1H-pyrazol-4-yl)amino)pyrimidin-4-yl)-8-azabicyclo[3.2.1]oct-2-en-8-yl)-1-acetone]	100 to 300
